{"source": "ChEMBL document CHEMBL1781882", "about": "“Neuroprotective effects of furopyrazole derivative of benzylindazole analogs on C2 ceramide-induced apoptosis in cultured cortical neurons” (Bioorg Med Chem Lett, 2009)", "key": {"Cortical neurone [1]": {"tested_on": "Cortical neurone", "assay": "Neuroprotective activity in Sprague-Dawley rat cortical neurons assessed as reduction in C2 ceramide-induced cell death treated for 2 hrs followed by challenged with C2 ceramide for 24 hrs by MTT assay", "format": "functional"}, "[2]": {"assay": "(§1) Neuroprotective activity in Sprague-Dawley rat cortical neurons assessed as reduction in C2 ceramide-induced cell death measured as cell survival at 10 uM for 2 hrs followed by challenged with C2 ceramide for 24 hrs by MTT assay", "format": "functional, Cortical neurone"}, "[3]": {"assay": "as §1, with “assay in presence of PD98059 ERK1/2 inhibitor (reference value: 100.2 +/- 1.7%)” for “assay”", "format": "functional, Cortical neurone"}, "Cortical neurone [4]": {"tested_on": "Cortical neurone", "assay": "Neuroprotective activity in Sprague-Dawley rat cortical neurons assessed as reduction in C2 ceramide-induced cell death at 30 uM for 2 hrs followed by challenged with C2 ceramide for 24 hrs by MTT assay", "format": "functional"}, "[5]": {"assay": "Neuroprotective activity in Sprague-Dawley rat cortical neurons assessed as reduction in C2 ceramide-induced cell death measured as cell survival at 5 uM for 2 hrs followed by challenged with C2 ceramide for 24 hrs by MTT assay", "format": "functional, Cortical neurone"}, "[6]": {"assay": "Cytotoxicity against Sprague-Dawley rat cortical neurons at 10 uM for 24 hrs by MTT assay", "conditions": "cortical neurone"}, "[7]": {"assay": "Neuroprotective activity in Sprague-Dawley rat cortical neurons assessed as reduction in C2 ceramide-induced cell death measured as cell survival at 1 uM for 2 hrs followed by challenged with C2 ceramide for 24 hrs by MTT assay", "format": "functional, Cortical neurone"}, "[8]": {"assay": "Neuroprotective activity in Sprague-Dawley rat cortical neurons assessed as reduction in C2 ceramide-induced cell death measured as cell survival at 2.5 uM for 2 hrs followed by challenged with C2 ceramide for 24 hrs by MTT assay", "format": "functional, Cortical neurone"}, "Cortical neurone [9]": {"tested_on": "Cortical neurone", "assay": "Neuroprotective activity in Sprague-Dawley rat cortical neurons assessed as attenuation of C2 ceramide-induced apoptosis at 10 uM challenged with C2 ceramide for 24 hrs by Hoechst 33258 staining", "format": "functional"}, "[10]": {"assay": "Neuroprotective activity in Sprague-Dawley rat cortical neurons assessed as reduction in C2 ceramide-induced cell death measured as cell survival at 10 uM for 2 hrs followed by challenged with C2 ceramide for 24 hrs by MTT assay in presence of U0126 ERK1/2 inhibitor (reference value: 100.2 +/- 1.7%)", "format": "functional, Cortical neurone"}}, "note": "Active and inactive are the calls of the source. The rule behind the calls is not given here.", "data": [{"smiles": "Cc1cc2c(o1)c(-c1ccc(C(=O)O)cc1)nn2Cc1ccccc1", "values": [{"measurement": "Activity", "setting": "Cortical neurone [1]", "value": "inactive"}]}, {"smiles": "Cc1cc2c(o1)c(-c1ccc(C(=O)O)cc1)nn2-c1ccccc1", "values": [{"measurement": "Activity", "setting": "Cortical neurone [1]", "value": "inactive"}]}, {"smiles": "Cc1cc2c(o1)c(-c1ccc(CO)cc1)nn2-c1ccccc1", "values": [{"measurement": "Activity", "setting": "[2]", "value": 100.2, "unit": "%"}, {"measurement": "Activity", "setting": "[3]", "value": 70.3, "unit": "%"}, {"measurement": "Activity", "setting": "Cortical neurone [4]", "value": "inactive"}, {"measurement": "Activity", "setting": "Cortical neurone [1]", "value": "Active"}, {"measurement": "Activity", "setting": "[5]", "value": 90.1, "unit": "%"}, {"measurement": "Activity", "setting": "[6]", "value": "Non-toxic"}, {"measurement": "Activity", "setting": "[7]", "value": 75.6, "unit": "%"}, {"measurement": "Activity", "setting": "[8]", "value": 81.5, "unit": "%"}, {"measurement": "Activity", "setting": "Cortical neurone [9]", "value": "Active"}, {"measurement": "Activity", "setting": "[10]", "value": 71.9, "unit": "%"}]}]}
